The record followed here is patent US5395947A, “Platinum(II) complex and processes for preparing the same” (Sunkyong Industries, Ltd., priority 1991, dated 1995).

The nature of data set [1]: Test for water solubility. In kind it is physicochemical. The following applies: water. From the text:
3. Test for water solubility
A standard plot of UV absorbance(220 nm) vs. concentration was made; and employed to determine water-solubility.
The mixture was then passed through a 0.45 micron disposable membrane filter before dilution and UV measurement.

Data set [2] has as its system murine leukemia L1210 cells. Nature of the data set: Growth inhibition test on cultured murine leukemia L1210 cells. In kind it is cell-based. The following applies: 48 hours, 37° C., Trypan blue viability. On the procedure:
1. Growth inhibition test on cultured murine leukemia L1210 cells
Murine leukemia L1210 cells(1×10^5) were treated with various concentrations of the compounds prepared in the above examples in RPMI 1640 medium supplemented with 10% fetal calf serum, and cultured in a 5% CO2 humidified incubator at 37° C. for 48 hours. Their viability, estimated by staining with 0.17% Trypan blue, was compared with that of control cells cultured in the identical medium without the compounds.

For another data set, the system named is murine leukemia L1210. Nature of the data set: Antitumor activity test on murine leukemia L1210 in vivo. On the set-up: species or system male BDF1 mice. The following applies: days 1, 5, 9. On the procedure: 2. Antitumor activity test on murine leukemia L1210 in vivo
Murine leukemia L1210 cells were maintained in the peritoneal cavities of 6-week-old male DBA/2 mice by weekly transfer in accordance with the procedure described in cancer chemotherapy Reports, Part 3, 3(2), 7 (1972). Specifically, 1×10^6 leukemia cells were inoculated into the abdominal cavities of 6-week-old male BDF1 mice weighing 21±3 g on day 0. Each treatment group consisted of seven mice. The test compounds were dissolved or suspended in 0.5% carboxymethyl cellulose(CMC)solution (in water) and were administered intraperitoneally on days 1, 5, and 9 relative to the tumor inoculation.
Thirty mice of 6-week-old male BDF1 weighing 21±3 g were used as the control group, which were injected with 0.5% CMC solution only in the same manner as above.
Anti-tumor activities of the compounds were evaluated in terms of the T/C % values calculated from the mean survival time(T) of the compound-treated group over that(C) of the control group. [formula]

Structures are written as SMILES.

As to `CC(C)C1OC2C[NH2+][Pt-2]3([NH2+]CC2O1)[O]C(=O)C1(CCC1)C(=O)[O]3` [Example 28, cis-cyclobutane-1,1-dicarboxylato[(4R,5R)-4,5-bis(aminomethyl)-2-isopropyl-1,3-dioxolane]platinum(II)], the Solubility in water in data set [1] is 2100 µg/mL. Besides, the “IC50 (concentration required for 50% inhibition of growth)” value in data set [2] was determined as 1.14 µg/mL. Moreover, the “T/C (%)” value with murine leukemia L1210 (6.2 mg/kg i.p.) is given as 113%; with murine leukemia L1210 (12.5 mg/kg i.p.), 106%; in the data set on murine leukemia L1210 (25 mg/kg i.p.) it was 126%; in the data set on murine leukemia L1210 (50 mg/kg i.p.), 133%; in the data set on murine leukemia L1210 (100 mg/kg i.p.), 130%.
For `CCC1OC2C[NH2+][Pt-2]3([NH2+]CC2O1)[O]C(=O)C(CC)C(=O)[O]3` [Example 43, cis-ethylmalonato[(4R,5R)-4,5-bis(aminomethyl)-2-ethyl-1,3-dioxolane]platinum(II)], the Solubility in water in data set [1] was determined as 7900 µg/mL. Moreover, the “IC50 (concentration required for 50% inhibition of growth)” value in data set [2] is 0.72 µg/mL. The “T/C (%)” value is recorded as 197% in the data set on murine leukemia L1210 (25 mg/kg i.p.), 245% with murine leukemia L1210 (50 mg/kg i.p.) and “toxic” in the data set on murine leukemia L1210 (100 mg/kg i.p.).
Compound `CC(C)(C)C1OC2C[NH2+][Pt-2]3([NH2+]CC2O1)[O]CC(=O)[O]3` [Example 12, (glycolato-O,O')[(4R,5R)-4,5-bis(aminomethyl)-2-tert-butyl-1,3-dioxolane]platinum(II)] yielded a Solubility in water in data set [1] of 2100 µg/mL. Moreover, in data set [2], the “IC50 (concentration required for 50% inhibition of growth)” value worked out at 0.10 µg/mL. The “T/C (%)” value is recorded as 104% in the data set on murine leukemia L1210 (3.1 mg/kg i.p.); 136% with murine leukemia L1210 (6.2 mg/kg i.p.); 154% in the data set with murine leukemia L1210 (12.5 mg/kg i.p.); 167% in the data set with murine leukemia L1210 (25 mg/kg i.p.); “toxic” in the data set with murine leukemia L1210 (50 mg/kg i.p.).
Turning to `CC1(C)OC2C[NH2+][Pt-2]3([NH2+]CC2O1)[O]C(=O)C1(CCC1)C(=O)[O]3` [Example 27, cis-cyclobutane-1,1-dicarboxylato[(4S,5S)-4,5-bis(aminomethyl)-2,2-dimethyl-1,3-dioxolane]platinum(II)], the Solubility in water in data set [1] is 1900 µg/mL. Besides, the “IC50 (concentration required for 50% inhibition of growth)” value in data set [2] came to 2.36 µg/mL. The “T/C (%)” value is 112% in the data set on murine leukemia L1210 (6.2 mg/kg i.p.); 106% in the data set with murine leukemia L1210 (12.5 mg/kg i.p.); 124% with murine leukemia L1210 (25 mg/kg i.p.); 148% in the data set with murine leukemia L1210 (50 mg/kg i.p.); 142% with murine leukemia L1210 (100 mg/kg i.p.).
In data set [1], `CCC1C(=O)[O][Pt]2([NH]C[C@H]3OC4(CCCC4)O[C@@H]3C[NH]2)[O]C1=O` (stereo partly drawn) [Example 45, cis-ethylmalonato[(4R,5R)-4,5-bis(aminomethyl)-1,3-dioxolane-2-spiro-1'-cyclopentane]platinum (II)] yielded a Solubility in water of 2700 µg/mL. For the same compound, the “IC50 (concentration required for 50% inhibition of growth)” value in data set [2] came to 1.40 µg/mL. The “T/C (%)” value was found to be 147% in the data set on murine leukemia L1210 (25 mg/kg i.p.), 232% in the data set on murine leukemia L1210 (50 mg/kg i.p.) and 216% in the data set with murine leukemia L1210 (100 mg/kg i.p.).
